{"source": "patent US20220125876A1", "about": "“A METHOD OF IMMUNE MODULATION BY MODULATING ABCF1” (Pacific Myco Biosciences, Ltd., priority 2019, published 2022)", "molecules": {"B1": {"name": "IL-1β: recombinant IL-1β (10 ng/ml) used to treat BMDMs (protein, UniProt P10749 118-269, looked up)", "Interleukin-1 beta": "VPIRQLHYRLRDEQQKSLVLSDPYELKALHLNGQNINQQVIFSMSFVQGEPSNDKIPVALGLKGKNLYLSCVMKDGTPTLQLESVDPKQYPKKKMEKRFVFNKIEVKSKVEFESAEFPNWYISTSQAEHKPVFLGNNSGQDIIDFTMESVSS"}, "B2": {"name": "IL-10: recombinant IL-10 (50 ng/ml) used to treat BMDMs (protein, UniProt P18893 19-178, looked up)", "Interleukin-10": "SRGQYSREDNNCTHFPVGQSHMLLELRTAFSQVKTFFQTKDQLDNILLTDSLMQDFKGYLGCQALSEMIQFYLVEVMPQAEKHGPEIKEHLNSLGEKLKTLRMRLRRCHRFLPCENKSKAVEQVKSDFNKLQDQGVYKAMNEFDIFINCIEAYMMIKMKS"}, "B3": {"name": "IFNβ: recombinant IFNβ (10,000 IU/50 μl) used to treat BMDMs (protein, UniProt P01575 22-182, looked up)", "Interferon beta": "INYKQLQLQERTNIRKCQELLEQLNGKINLTYRADFKIPMEMTEKMQKSYTAFAIQEMLQNVFLVFRNNFSSTGWNETIVVRLLDELHQQTVFLKTVLEEKQEERLTWEMSSTALHLKSYYWRVQRYLKLMKYNSYAWMVVRAEIFRNFLIIRRLTRNFQN"}}, "key": {"[1]": {"test_system": "bone marrow derived macrophages (BMDM)", "assay": "Immunoblotting of BMDM lysates for protein expression and phosphorylation", "type": "cell-based, mouse", "experimental": "Western blotting: Cell lysates were prepared as described above. All co-immunoprecipitation samples were prepared without DTT in the sample buffer, unless otherwise mentioned. All other western blot samples were prepared with DTT in the sample buffer. Lysates were electrophoresed and immunoblotted with indicated antibodies.\nCytoplasmic and Nuclear fractionation: Bone marrow macrophages were stimulated with mentioned treatments and cytoplasmic and nuclear fractionation was performed with NE-PER Nuclear and Cytoplasmic Extraction Reagents (Thermo Scientific; 78833) according to manufacturer's instructions.\nCell lysates were prepared as described above. All co-immunoprecipitation samples were prepared without DTT in the sample buffer, unless otherwise mentioned. All other western blot samples were prepared with DTT in the sample buffer. Lysates were electrophoresed and immunoblotted with indicated antibodies.\nBone marrow macrophages were stimulated with indicated treatments and cytoplasmic and nuclear fractionation was performed with NE-PER Nuclear and Cytoplasmic Extraction Reagents (Thermo Scientific; 78833) according to manufacturer's instructions."}, "[2]": {"test_system": "ABCF1", "assay": "Polyubiquitination state of ABCF1 in BMDM (immunoprecipitation with anti-ABCF1, immunoblot with anti-polyubiquitin antibodies)", "type": "cell-based, mouse"}, "[3]": {"molecular_target": "T1, ubiquitin (Homo sapiens, UniProt P0CG48)", "T1 construct": "recombinant ABCF1, UBA1, and Ub proteins were incubated in the presence of cofactors; purchased abcam ab139467; host or cells: ubiquitin and E1 from the kit; ABCF1 immunoprecipitated from transfected mouse BMDM", "assay": "In vitro ubiquitination assay", "type": "biochemical, mouse", "details": "with UBA1 (E1), Mg2+ and ATP, DTT sensitive", "experimental": "In vitro ubiquitination Assay: Abcf1WT and Abcf1C647S expression plasmids were overexpressed in macrophages as described above. Before overexpressing Abcf1C647S expression plasmid, cells were treated with Abcf1 siRNA, as described above to eliminate endogenous Abcf1 levels. Abcf1 siRNA treated cells were washed with cold PBS twice and then Abcf1C647S expression plasmid was overexpressed. Cell lysates were prepared and subjected to co-immunoprecipitation with anti ABCF1 antibody. Extend of overexpression and co-immunoprecipitation was checked by western blot. Ubiquitination Assay was performed on immunoprecipitated samples with Ubiquitylation Assay Kit (abcam; ab139467) according to manufacturer's instructions. Samples were run on a gel and blotted with anti ABCF1 and anti UB antibodies.\nTo confirm the finding, enzyme activity of ABCF1 was investigated in presence and absence of cofactor Mg^2+ and ATP via an in vitro ubiquitination assay. […] As thio-ester bonds mediate ubiquitin attachment to the E2 enzyme and are DTT sensitive, no such protein band was observed when samples were treated with DTT.\nTo confirm if the conserved cysteine at position 647 in the ABCF1 sequence is the catalytic cysteine that mediates the E2 function, in vitro ubiquitination assay was performed with Abcf1 WT and Abcf1 C647S (where the cysteine was mutated to a serine) protein constructs. […]"}, "[4]": {"test_system": "ABCF1", "details": "cited from earlier work"}, "[5]": {"details": "induction of hypoxia, CoCl2 100 μM for 24 hours"}, "[6]": {"details": "LPS (100 ng/ml) 30 min, SM 100 nM, Dynasore 80 μM"}, "[7]": {"details": "BMDMs treated with recombinant cytokine for 24 hours (TNFα 10 ng/ml, IL-1β 10 ng/ml, IL-10 50 ng/ml, IFNβ 10,000 IU/50 μl)"}}, "note": "“Also recorded” adds a separate entry of the source."}
{"molecule": "[Cl][Co][Cl]", "note": "[CoCl2, Cobalt Chloride]", "values": [{"measurement": "ABCF1 expression", "setting": "[1]; [5]", "result": "decreased"}, {"measurement": "HIF-1α expression", "setting": "[1]; [5]", "result": "increased"}]}
{"molecule": "CN[C@@H](C)C(=O)N[C@H](C(=O)N1CCC[C@H]1Cn1nnnc1Sc1ccccc1)C(C)OCC#CC#CCO[C@H](C)[C@H](NC(=O)[C@H](C)NC)C(=O)N1CCCC1Cn1nnnc1Sc1ccccc1", "note": "(stereo partly shown) [SM]", "values": [{"measurement": "K63-polyubiquitination of ABCF1", "setting": "[2]; [6]", "result": "increased"}, {"measurement": "polyubiquitin linkage of ABCF1", "setting": "[2]; LPS treatment for 10 minutes", "result": "K63-polyubiquitination of ABCF1 instead"}]}
{"molecule": "recombinant ABCF1: recombinant ABCF1 protein used in the in vitro ubiquitination assay", "values": [{"measurement": "mass / apparent molecular weight shift of ABCF1 (Ub thioester attachment)", "setting": "[3]", "result": "increase in mass size; also recorded: increase in the apparent molecular weight"}]}
{"molecule": "CN(C)CCC[C@@]1(c2ccc(F)cc2)OCc2cc(C#N)ccc21", "note": "[Escitalopram]", "values": [{"measurement": "effect on ABCF1 pathway", "setting": "[4]", "result": "known enhancer of the ABCF1 pathway"}]}
{"molecule": "TNFα", "values": [{"measurement": "ABCF1 expression", "setting": "[1]; [7]", "result": "decreased"}]}
{"molecule": "O=C(N/N=C/c1ccc(O)c(O)c1)c1cc2ccccc2cc1O", "note": "[Dynasore]", "values": [{"measurement": "polyubiquitin linkage of ABCF1", "setting": "[2]; Dynasore treatment alone", "result": "led to K48-polyubiquitination"}, {"measurement": "K48-polyubiquitination of ABCF1", "setting": "[2]; [6]", "result": "targeted for K48-polyubiquitination; also recorded: extensively upregulated"}, {"measurement": "K63-polyubiquitination of ABCF1", "setting": "[2]; [6]", "result": "no K63-polyubiquitination was observed; also recorded: greatly reduced"}]}
{"molecule": "B1", "values": [{"measurement": "ABCF1 expression", "setting": "[1]; [7]", "result": "decreased"}]}
{"molecule": "B2", "values": [{"measurement": "ABCF1 expression", "setting": "[1]; [7]", "result": "increased"}]}
{"molecule": "B3", "values": [{"measurement": "ABCF1 expression", "setting": "[1]; [7]", "result": "increased"}]}
